Laboratory results as given in ChEMBL document CHEMBL1154879, “Discovery of (thienopyrimidin-2-yl)aminopyrimidines as potent, selective, and orally available pan-PI3-kinase and dual pan-PI3-kinase/mTOR inhibitors for the treatment of cancer” (J Med Chem, 2010).

Legend:
[1] = Oral bioavailability in nu/nu mouse at 5 mg/kg, po; format: ADME, organism-based; settings: in vivo
[2] = biological target: Phosphatidylinositol 4,5-bisphosphate 3-kinase catalytic subunit beta isoform (Homo sapiens, UniProt P42338); assay: Inhibition of recombinant PI3Kbeta assessed as PIP3 product formation by fluorescence polarization assay
Chain of Phosphatidylinositol 4,5-bisphosphate 3-kinase catalytic subunit beta isoform (P42338 whole entry, canonical isoform): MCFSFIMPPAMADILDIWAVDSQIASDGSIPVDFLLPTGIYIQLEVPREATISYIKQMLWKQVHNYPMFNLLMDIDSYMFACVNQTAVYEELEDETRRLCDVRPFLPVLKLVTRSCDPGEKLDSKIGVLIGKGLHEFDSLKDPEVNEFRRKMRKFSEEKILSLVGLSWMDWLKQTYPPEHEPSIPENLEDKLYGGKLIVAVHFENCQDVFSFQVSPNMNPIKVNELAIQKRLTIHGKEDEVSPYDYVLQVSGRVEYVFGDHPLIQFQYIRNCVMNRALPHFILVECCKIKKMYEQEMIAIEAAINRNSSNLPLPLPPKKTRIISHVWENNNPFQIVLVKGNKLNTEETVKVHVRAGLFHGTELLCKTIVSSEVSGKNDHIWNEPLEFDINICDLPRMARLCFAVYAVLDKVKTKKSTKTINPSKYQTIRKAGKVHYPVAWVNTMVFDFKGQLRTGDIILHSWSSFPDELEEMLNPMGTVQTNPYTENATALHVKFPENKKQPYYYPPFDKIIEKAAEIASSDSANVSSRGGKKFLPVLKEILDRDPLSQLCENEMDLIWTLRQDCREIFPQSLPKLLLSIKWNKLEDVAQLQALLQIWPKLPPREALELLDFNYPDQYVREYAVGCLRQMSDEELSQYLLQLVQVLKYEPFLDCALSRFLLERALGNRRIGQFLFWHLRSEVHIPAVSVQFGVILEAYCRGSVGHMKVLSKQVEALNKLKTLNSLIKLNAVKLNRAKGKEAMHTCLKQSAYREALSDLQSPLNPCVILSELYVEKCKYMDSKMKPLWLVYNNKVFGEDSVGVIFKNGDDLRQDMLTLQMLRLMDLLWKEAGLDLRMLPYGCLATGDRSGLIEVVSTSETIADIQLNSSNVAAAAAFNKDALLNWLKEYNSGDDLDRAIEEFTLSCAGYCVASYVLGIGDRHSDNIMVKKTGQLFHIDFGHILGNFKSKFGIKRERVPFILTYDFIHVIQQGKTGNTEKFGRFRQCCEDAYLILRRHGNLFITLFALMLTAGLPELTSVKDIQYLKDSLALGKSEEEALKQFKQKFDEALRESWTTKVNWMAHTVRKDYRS

- bioavailability [1]: 100%
- IC50 [2]: 25 nM
SMILES: Cc1nc(N)ncc1-c1nc(N2CCOCC2)c2sc(C(C)(C)O)cc2n1
